Measured values reported in the supplement of paper PMC10307832.

What was measured:
Assay in all cases: relative viability (nuclei count vs DMSO), 5 days (fraction); higher = more cells survive
[1] = compound: COc1cc2nc(N3CCCN(C)CC3)nc(NC3CCN(Cc4ccccc4)CC3)c2cc1OC + CS(=O)(=O)CCNCc1ccc(-c2ccc3ncnc(Nc4ccc(OCc5cccc(F)c5)c(Cl)c4)c3c2)o1 [Lapatinib] (partner 2 µM)
How it was run: (§1)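 Dosing by pin tool came one day after lung cancer cell lines were seeded in 1536-well plates, using either one drug or a fixed anchor-drug dose plus five library-drug doses (not always all listed) in √10 steps. After 5 days, nuclei were counted on 4× images. Relative viability is treated-well nuclei count divided by vehicle-well nuclei count, and values are medians of duplicate plates.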

AZD6482 + Phenformin = compound: Cc1cc([C@@H](C)Nc2ccccc2C(=O)O)c2nc(N3CCOCC3)cc(=O)n2c1 [AZD6482] + N=C(N)NC(=N)NCCc1ccccc1 [Phenformin] (partner 250 µM)
How it was run: as §1

AZD6482 + Luminespib = compound: Cc1cc([C@@H](C)Nc2ccccc2C(=O)O)c2nc(N3CCOCC3)cc(=O)n2c1 [AZD6482] + CCNC(=O)c1noc(-c2cc(C(C)C)c(O)cc2O)c1-c1ccc(CN2CCOCC2)cc1 [Luminespib] (partner 0.01 µM)
How it was run: as §1

AZD6482 + Palbociclib = compound: Cc1cc([C@@H](C)Nc2ccccc2C(=O)O)c2nc(N3CCOCC3)cc(=O)n2c1 [AZD6482] + CC(=O)c1c(C)c2cnc(Nc3ccc(N4CCNCC4)cn3)nc2n(C2CCCC2)c1=O [Palbociclib] (partner 0.5 µM)
How it was run: as §1

Cell Line | relative viability ([1]; first compound 0.2 µM) | relative viability ([1]; first compound 0.6325 µM) | relative viability ([1]; first compound 2 µM) | relative viability ([1]; first compound 6.325 µM) | relative viability (AZD6482 + Phenformin; first compound 0.08 µM) | relative viability (AZD6482 + Phenformin; first compound 0.253 µM) | relative viability (AZD6482 + Phenformin; first compound 0.8 µM) | relative viability (AZD6482 + Phenformin; first compound 2.53 µM) | relative viability (AZD6482 + Phenformin; first compound 8 µM) | relative viability (AZD6482 + Luminespib; first compound 0.08 µM) | relative viability (AZD6482 + Luminespib; first compound 0.253 µM) | relative viability (AZD6482 + Luminespib; first compound 0.8 µM) | relative viability (AZD6482 + Luminespib; first compound 2.53 µM) | relative viability (AZD6482 + Luminespib; first compound 8 µM) | relative viability (AZD6482 + Palbociclib; first compound 0.08 µM) | relative viability (AZD6482 + Palbociclib; first compound 0.253 µM) | relative viability (AZD6482 + Palbociclib; first compound 0.8 µM) | relative viability (AZD6482 + Palbociclib; first compound 2.53 µM) | relative viability (AZD6482 + Palbociclib; first compound 8 µM)
NCI-H1975 | 0.93 | 0.968 | 1.01 | 0.881 | 0.373 | 0.383 | 0.401 | 0.283 | 0.232 | 0.171 | 0.272 | 0.17 | 0.162 | 0.224 | 0.439 | 0.558 | 0.623 | 0.562 | 0.421
NCI-H1944 | 0.778 | 0.961 |  | 0.762 | 0.216 | 0.193 | 0.19 | 0.154 | 0.153 | 0.775 | 0.621 | 0.858 | 0.546 | 0.589 | 0.293 | 0.313 | 0.295 | 0.285 | 0.211
LU99A | 0.909 | 0.93 | 1.1 | 0.898 | 0.903 | 0.848 | 0.791 | 0.691 | 0.813 | 0.323 | 0.26 | 0.334 | 0.237 | 0.238 | 0.373 | 0.368 | 0.397 | 0.353 | 0.311
SW 1573 | 1.15 | 1.07 | 1.26 | 1.05 | 0.301 | 0.296 | 0.383 | 0.19 | 0.221 | 0.218 | 0.219 | 0.246 | 0.194 | 0.206 | 0.296 | 0.351 | 0.328 | 0.282 | 0.218
NCI-H2347 | 0.901 | 1.01 | 0.954 | 0.911 | 0.198 | 0.277 | 0.235 | 0.243 | 0.221 | 0.329 | 0.231 | 0.583 | 0.27 | 0.281 | 0.35 | 0.389 | 0.406 | 0.394 | 0.389
NCI-H2009 | 0.871 | 0.888 | 1.08 | 0.901 | 0.476 | 0.49 | 0.442 | 0.283 | 0.34 | 1.04 | 1.11 | 1.08 | 0.771 | 0.963 | 0.187 | 0.176 | 0.172 | 0.124 | 0.119
HCC-15 | 0.888 | 0.789 | 0.824 | 0.765 | 0.499 | 0.462 | 0.457 | 0.349 | 0.406 | 0.425 | 0.229 | 0.275 | 0.239 | 0.43 | 0.652 | 0.631 | 0.77 | 0.676 | 0.633
HCC-44 | 1.01 | 0.989 | 1.05 | 1.04 | 0.255 | 0.14 | 0.189 | 0.169 | 0.167 | 0.941 | 1.12 | 0.98 | 0.824 | 1.1 | 0.858 | 0.988 | 1.04 | 1.05 | 1.26
COR-L23 | 0.848 | 0.849 | 1.1 | 0.92 | 0.412 | 0.445 | 0.455 | 0.343 | 0.373 | 0.635 | 0.688 | 0.768 | 0.519 | 0.636 | 0.223 | 0.28 | 0.305 | 0.338 | 0.224
HCC-78 | 0.704 | 1.06 | 1.03 | 0.882 | 0.506 | 0.421 | 0.562 | 0.309 | 0.31 |  |  |  |  |  | 0.402 | 0.449 | 0.4 | 0.378 | 0.427
NCI-H1299 | 0.965 | 0.933 | 0.972 | 0.862 |  |  |  |  |  |  |  |  |  |  |  |  |  |  | 
LCLC-103H |  |  |  |  | 0.255 | 0.274 | 0.342 | 0.251 | 0.215 | 0.741 | 0.751 | 0.804 | 0.602 | 0.64 | 0.48 | 0.475 | 0.47 | 0.265 | 0.353
ChaGo-K-1 |  |  |  |  | 0.54 | 0.397 | 0.446 | 0.48 | 0.416 | 0.486 | 0.526 | 0.574 | 0.593 | 0.501 | 0.948 | 0.901 | 0.926 | 0.919 | 0.934
SW 900 |  |  |  |  | 0.48 | 0.29 | 0.449 |  | 0.414 | 0.152 | 0.137 | 0.153 |  | 0.153 | 0.474 | 0.434 | 0.348 | 0.355 | 0.389
NCI-H596 | 1.1 | 0.563 | 1.24 | 0.837 | 0.658 | 0.576 | 0.636 | 0.691 | 0.737 | 0.92 | 0.815 | 0.848 | 0.812 | 0.801 |  |  |  |  | 
NCI-H1563 | 0.913 | 0.982 | 0.81 | 0.734 | 0.684 | 0.653 | 0.67 | 0.65 | 0.629 | 0.504 | 0.541 | 0.584 | 0.478 | 0.522 |  |  |  |  | 
A549 | 1.06 | 0.897 | 1.04 | 0.827 | 0.154 | 0.14 | 0.222 | 0.158 | 0.153 |  |  |  |  |  |  |  |  |  | 
NCI-H2342 |  |  |  |  | 0.517 | 0.569 | 0.682 | 0.373 | 0.429 | 0.67 | 0.54 | 0.504 | 0.391 | 0.608 | 0.536 | 0.499 | 0.506 | 0.54 | 0.448
NCI-H1623 |  |  |  |  | 0.577 | 0.579 | 0.531 | 0.502 | 0.534 | 0.48 | 0.402 | 0.472 | 0.45 | 0.413 |  |  |  |  | 
NCI-H522 |  |  |  |  | 0.607 | 0.764 | 0.7 | 0.654 | 0.396 | 1.22 | 1.07 | 0.879 | 0.946 | 0.88 | 1.07 | 0.933 | 0.691 | 0.805 | 0.825
IA-LM |  | 0.888 | 1.03 | 0.669 |  |  |  |  |  |  |  |  |  |  |  |  |  |  | 
EBC-1 | 0.222 | 0.177 | 0.18 | 0.155 |  |  |  |  |  |  |  |  |  |  |  |  |  |  | 
